Legend:
[1] = tested on: mouse primary hepatocytes; test: TNF-α/ActD-induced cell death, crystal violet viability; assay type: cell-based; settings: BAY 11-7082 (10 μM) to inhibit NF-κB activation
iNOS = iNOS promoter luciferase reporter assay in hepatocytes; assay type: cell-based; settings: BAY 11-7082 10 μM 1 hr prior to CO
Procedure: In some experiments, gene transfer of an IκBα superrepressor (Hellerbrand et al., Hepatology 27:1285-1295 (1998)) or β-galactosidase using adenoviral vectors (10 pfu/cell) was performed 12 hours prior to TNF-α/ActD treatment. NF-κB activation was evaluated using a luciferase reporter assay as described in Chow et al. (J. Biol. Chem. 274: 10689-10692 (1999)). Briefly, hepatocytes were co-transfected with NF-κB reporter constructs (pGL3-kappaβ luciferase, 100 ng/well; and pIEP-Lac-z 0.5 μg/well) using Lipofectin™ (Invitrogen, Carlsbad, Calif.) as instructed by the manufacturer. Evaluation of iNOS expression was performed using a luciferase reporter assay as described in Lowenstein et al. (Proc. Natl. Acad. Sci. U.S.A 90: 9730-9734 (1993)). Briefly, hepatocytes were co-transfected with iNOS promoter reporter constructs (pXP2; 1 μg/well) and pIEP-LacZ (0.5 μg/well) as described above.
Hepatocytes were transfected with plasmids as described above and treated with various stimuli 24 hours after transfection. Luciferase activity (reported as arbitrary units; A.U.) was assayed 6 hours after initiation of treatment, using a luciferase assay kit (Promega, Madison, Wis.) and a Berthold Luminometer. Results were corrected for transfection efficiency and protein concentration. […]

[2] = tested on: TNF-α/D-gal-induced liver injury
Procedure: Male C57BL/6J ([…], Bar Harbor, Me.), 8-12-wk-old inos^−/− mice and wild type littermates (bred/maintained at the University of Pittsburgh) were used for in vivo experiments.
10 mg/kg subcutaneously (s.c.), Alexis Biochem., San Diego, Calif.) or cobalt protoporphyrin (CoPP, 5 mg/kg, intraperitoneally (i.p.), Frontier Scientific, Logan, Utah). […] Where indicated, acetaminophen (Sigma Chem. Co.; St Louis, Mo.) was administered (500 mg/kg, i.p.).
A CO analyzer (Interscan, Chatsworth, Calif.) was used to measure CO levels continuously in the chamber. CO concentrations were maintained at 250 ppm at all times. Mice were placed in the exposure chamber as required.
Whether HO-1 is protective against acute hepatic failure was investigated. Cobalt protoporphyrin (5 mg/kg, i.p.) was administered to male C57BL/6J mice. Twenty-four hours later, TNF-α/D-gal (0.3 μg/8 mg/mouse, i.p., respectively) was administered to the mice. Serum alanine aminotransferase (ALT) levels in the mice were measured 8 hours after administration of TNF-α/D-gal.
After receiving TNF-α/D-gal, mice were returned to the CO exposure chamber and their serum was analyzed for ALT levels 6-8 hr later.
To generate the data presented in FIGS. 11A-11H, liver samples from mice treated with TNF-α/D-gal in the presence and absence of CO (250 ppm) for 8 hr were sectioned and stained for hematoxylin & eosin (H&E), activated caspase 3 (as indicated by an increase in red intensity), and for TUNEL positive cells (as demarcated by the increased green cellular staining; a marker of cell death). Nuclei stained blue.
L-NIL was administered 2 hr prior to CO. CO-treated animals were then pre-treated (250 ppm) for 1 hr prior to TNF-α/D-gal.
VP was selectively designed to deliver NO directly to the liver. One hour after the initial VP dose, the animals were exposed to CO for 1 hr prior to administration of TNF-α/D-gal (see above). Serum ALT levels were determined 6-8 hr later.
These mice and inos^−/− mice were then administered CoPP. L-NIL was maintained in the water throughout the experiment. Control and inos^−/− mice received normal drinking water. Twenty-four hr after administration of CoPP, TNF-α/D-gal was administered and serum ALT determined 6-8 hr later.

HO-1 = test: Liver HO-1 expression (immunoblot); assay type: in vivo, mice; settings: L-NIL 5 mg/kg i.p., room air
Procedure: Western blot analysis was performed on primary hepatocytes in culture or from liver homogenates with antibodies to iNOS (Transduction Laboratories, Lexington, Ky.; 1:1000), HO-1 (Calbiochem; 1:2000), or β-actin (Sigma Chemical; 1:5000). Thirty μg protein in cell culture experiments or 100 μg protein from liver homogenates was loaded per well for SDS-PAGE.
To assess the role of iNOS on TNF-α/D-gal-induced HO-1 expression in the liver (data presented in FIG. 16), mice were administered L-NIL (5 mg/kg, i.p.) 2 hr prior to pre-treatment with CO (250 ppm) and every 2 hr thereafter. Control mice received L-NIL and remained in room air.

[3] = tested on: mouse primary hepatocytes; test: TNF-α/ActD-induced cell death, crystal violet viability; assay type: cell-based
Procedure: Mouse primary hepatocytes were harvested from C57BL/6J, mkk3^−/−, inos^−/− (in-house breeding colony), or hmox-1^−/− mice as described in Kim et al. (J. Biol. Chem. 272: 1402-1411 (1997)). Hepatocytes were used on days 1-3 following harvest.
Cells were treated with TNF-α (10 ng/ml) and actinomycin-D (Act-D; 200 ng/ml, Sigma Chemical Co. St. Louis, Mo.) to induce cell death.
Whether exogenous CO is protective against hepatocyte cell death in vitro was investigated. To generate the data presented in FIG. 2, mouse hepatocytes were pre-incubated with CO (250 ppm) for 1 hr (standard pre-treatment time for all experiments) prior to addition of TNF-α/Act-D (10 ng/200 ng/ml respectively). Cells were maintained in CO for the duration of the experiment. Twelve hours afterward, cell viability was measured as described in Kim et al. (J. Biol. Chem. 272: 1402-1411 (1997)). Adenoviral experiments involved incubating hepatocytes overnight with 10 pfu/cell of the adenovirus prior to addition of TNF-α/ActD, and then assaying for viability using crystal violet. The roles of signaling molecules guanylyl cyclase and p38 MAPK were also investigated in this model. To evaluate the role of cGMP and confirm the role of NF-κB, hepatocytes were treated separately with the soluble guanylate cyclase (sGC) inhibitor 1H-[1,2,4]Oxadiazolo[4,3-a]quinoxalin-1-one (ODQ; Calbiochem; 2-10 μM) or the NF-κB inhibitor BAY 11-7082, (10 μM). Cells were treated with the inhibitors for 1 hour prior to the 1 hour pretreatment with CO. TNF-α/ActD was then added and the cells tested for viability 12 hours later. NF-κB activation was critical to the protection elicited by CO while cGMP was not involved.
To generate the data presented in FIG. 9, mouse hepatocytes were isolated from inos^−/− or from wild type C57BL/6J mice, which were then pre-treated for 1 hr with L-NIO (1 mM) to inhibit iNOS prior to CO administration. Those groups exposed to CO received a one-hour pretreatment prior to addition of TNF-α/ActD and were then returned to CO exposure.
To generate the data presented in FIG. 19, mouse hepatocytes were isolated from HO-1 null mice (hmox-1^−/−) and wild type (C57BL/6J) littermates, pretreated for 1 hour with CO (250 ppm), and treated with TNF-α/ActD. Viability was assayed as described above.
To generate the data presented in FIG. 20, mouse hepatocytes were isolated from HO-1 null mice (hmox-1^−/−) and wild type (C57BL/6J) littermates, pretreated with the NO donor SNAP (500 μM), and then treated with TNF-α/ActD 1 hour later.

[4] = SNAP 500 μM, 1 hour before TNF-α/ActD

Compound: Cc1ccc(S(=O)(=O)/C=C/C#N)cc1 [BAY 11-7082, reference compound]
- Effect on the protective effects of CO [1]: abrogated
- iNOS luciferase reporter activity with NF-κB inhibitor (iNOS): decreased reporter activity

Compound: C=CC1=C(C)c2cc3[n-]c(cc4nc(cc5[n-]c(cc1n2)c(C)c5CCC(=O)[O-])C(CCC(=O)[O-])=C4C)c(C)c3C=C.[Co+2].[H+].[H+] [CoPP, cobalt protoporphyrin]
- Liver injury as measured by serum ALT ([2]; 5 mg/kg i.p. 24 h before TNF-α/D-gal, ALT 8 hours after, C57BL/6J mice): prevented liver injury
- Liver injury ([2]; CoPP with and without L-NIL (4.5 mM drinking water), TNF-α/D-gal 24 hours after CoPP): protected from liver injury
- Reduction in serum ALT ([2]; inos−/− mice, CoPP 24 hr before TNF-α/D-gal, 6-8 hr later): > 50%

Compound: CC(=N)NCCCC[C@H](N)C(=O)O.Cl.Cl [L-NIL, L-N6-(1-iminoethyl)-lysine-dihydrochloride, reference compound]
- Liver HO-1 expression, L-NIL alone (HO-1): minimal effect
- Severity of liver injury, L-NIL alone ([2]; L-NIL 4.5 mM in drinking water, TNF-α/D-gal): did not change the severity of injury

Compound: O=c1onc2cnc3ccccc3n12 [ODQ, 1H-[1,2,4]Oxadiazolo[4,3-a]quinoxalin-1-one, reference compound]
- Effect on protection provided by CO ([3]; ODQ 2-10 μM, 1 hour prior to CO pretreatment): did not reverse the protection

Compound: CC(=O)N[C@H](C(=O)O)C(C)(C)SN=O [SNAP, s-nitroso-N-acetyl-penicillamine, reference compound]
- TNF-α/ActD-induced cell death, hmox-1−/− hepatocytes [3, 4]: did not provide significant protection
- TNF-α/ActD-induced cell death, wild type hepatocytes [3, 4]: significantly protected against cell death

Compound: C=Cc1c2[n-]c(c1C)/C=c1\[n-]/c(c(C)c1C=C)=C\c1[n-]c(c(CCC(=O)O)c1C)/C=c1\[n-]c(c(C)c1CCC(=O)O)=C2.[Sn+4] [SnPP, tin protoporphyrin]
- Effect on the protective effects of CO ([2]; SnPP 50 μmol/kg s.c. 5 hr prior to CO, TNF-α/D-gal): significantly diminished
- Effect on protection by the NO donor V-PYRRO/NO ([2]; TNF-α/D-gal with SnPP): abrogated
- Effect of administration in the absence of TNF-α/D-gal ([2]; data not shown): no deleterious or protective effects
